The values below come from article PMC4751974, “Deriving Heterospecific Self-Assembling Protein–Protein Interactions Using a Computational Interactome Screen” (Journal of Molecular Biology, 2016).

The assay deals with coiled-coil pairs within the eight-peptide interactome. Put plainly: Thermal denaturation followed by CD at 222 nm (Tm of coiled-coil pairs). It counts as binding. The following applies: Table 1 and text, CD 222 nm, 150 μM total peptide (75 μM per peptide for heterodimers), 10 mM potassium phosphate, 100 mM potassium fluoride, pH 7, -8 to 95 °C in 1 °C steps, two-state fit. Here is the method: CD was carried out using an Applied Photophysics Chirascan CD apparatus (Leatherhead, UK) using a 200-μl sample in a CD cell with a 1-mm path length. Samples contained 150 μM total peptide (Pt) concentration at equimolar concentration for heterodimeric solutions (i.e., 75 μM per peptide) and suspended in 10 mM potassium phosphate and 100 mM potassium fluoride at pH 7 1 h prior to analysis. The CD spectra of samples were scanned between 300 nm and 190 nm in 1-nm steps, averaging 0.5 s at each wavelength. Three scans at 20 °C were averaged to assess helical levels and coiled-coil structure.
Thermal denaturations were performed at 150 μM Pt in 10 mM potassium phosphate and 100 mM potassium fluoride, pH 7, using an Applied Photophysics Chirascan CD instrument (Leatherhead, UK). The temperature ramp was set to stepping mode using 1 °C increments and paused for 30 s at each temperature before measuring ellipticity at 222 nm. For all temperature denaturation experiments, data collection was started at − 8 °C, and at this temperature, the peptide solutions remained aqueous. Data collection continued to 95 °C. Data points for thermal denaturation profiles represent the averaged signal after 4 s of data collection. Melting profiles (see Fig. 3a) were ≥ 95% reversible with equilibrium denaturation curves fitted to a two-state model, derived via modification of the Gibbs–Helmholtz equation [6], [45], [46], to yield the melting temperature (Tm). […] Tm values were determined by least-squares fitting of the denaturation assuming a two-state folding model that is widely used for coiled coils and provided an excellent fit to our data.

As usually defined, the Tm is the temperature at the midpoint of the melting transition. “ASEIAALEAENAALEYKNAALKAKIAALKGAP [Peptide 8, N- and C-capped coiled-coil peptide; 8-8 is the homomeric sample]”: the midpoint of thermal melting (Tm) (listed as 8-8) was 27 °C.
On to “ASENAALEAKIAALKYEIAALEAKNAALKGAP [Peptide 6, N- and C-capped coiled-coil peptide; 6-6 is the homomeric sample]”, for which the midpoint of thermal melting (Tm) turned out to be 53 °C.
The same measure, in the same setting: as for “ASENAALEAKNAALKYKIAALKAEIAALEGAP [Peptide 1, N- and C-capped coiled-coil peptide; 1-1 is the homomeric sample]”, the figure is 32 °C.
As to “ASKIAALKAKNAALKYENAALEAEIAALEGAP [Peptide 7, N- and C-capped coiled-coil peptide; 7-7 is the homomeric sample]”, under “listed as 7-7”, the midpoint of thermal melting (Tm) was 11 °C.
In the case of “ASKNAALKAEIAALEYKIAALKAENAALEGAP [Peptide 5, N- and C-capped coiled-coil peptide; 5-5 is the homomeric sample]”, the Tm was 53 °C.
On the same count and under the same terms, as for “ASKNAALKAENAALEYEIAALEAKIAALKGAP [Peptide 2, N- and C-capped coiled-coil peptide; 2-2 is the homomeric sample]”, the figure is 20 °C.
